Measurements: US20050261290A1, “Novel compounds of proline and morpholine derivatives” (priority 2004, published 2005)
Like-named read-outs stand apart in the source and are kept apart here.

Target: human 11b-hsd-1 (Homo sapiens, UniProt P28845)
Assay: Inhibition constant Ki of human 11b-hsd-1 (3H-cortisone to 3H-cortisol conversion, HPLC)
Type: biochemical
Details: for Ki: apparent Ki, read-out: Ki app

Sequence of human 11b-hsd-1 (P28845 whole entry): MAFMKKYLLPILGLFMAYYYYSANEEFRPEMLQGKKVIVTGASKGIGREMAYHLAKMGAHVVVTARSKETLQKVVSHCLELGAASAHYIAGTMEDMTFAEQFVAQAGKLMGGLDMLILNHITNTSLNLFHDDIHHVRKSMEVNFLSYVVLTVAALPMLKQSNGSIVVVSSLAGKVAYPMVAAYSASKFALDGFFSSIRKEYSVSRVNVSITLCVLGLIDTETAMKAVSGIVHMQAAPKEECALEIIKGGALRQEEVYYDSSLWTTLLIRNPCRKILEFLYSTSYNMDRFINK

inhibition at 0.1 µM (0.1 μM compound) [%] | Ki [nM] | Ki (human 11b-hsd-1) [nM] | inhibition at 0.1 µM (compound at 0.1 μM) [%] | Compound
84.9 | 48 | – | – | CC(C)CN1CCOC[C@@H]1C(=O)NCc1ccc(F)cc1F [Example 281]
100 | 1 | – | – | CC(C)CN1CCOC[C@@H]1C(=O)NCC1CCCCC1 [Example 336]
50 | 4.4 | – | – | CN(C(=O)[C@H]1COCCN1Cc1ccccc1)C1CCCCC1 [Example 303]
91.8 | – | – | – | O=C(NC1CCCCC1)[C@@H]1C[C@H](Oc2ccc(Cl)c(F)c2)CN1 [Example 373]
90.7 | 11 | – | – | CC(C)[C@H]1CCN[C@@H]1C(=O)NC1C2CC3CC(C2)CC1C3 (stereo partly drawn) [Example 344]
76.5 | 27 | – | – | CC[C@H]1CCN[C@@H]1C(=O)NC1C2CC3CC(C2)CC1C3 (stereo partly drawn) [Example 345]
100 | 10 | – | – | Cc1ccccc1CNC(=O)[C@H]1CCCN1Cc1ccc(Cl)cc1 [Example 268]
68.9 | 110 | – | – | O=C(NCc1c(F)cccc1F)[C@H]1COCCN1Cc1ccccc1 [Example 327]
99.1 | 5.51 | – | – | CC(C)CN1CCC[C@@H]1C(=O)N[C@H]1c2ccccc2C[C@H]1O [Example 288]
98.7 | 3.39 | – | – | CC(C)CN1CCC[C@@H]1C(=O)N[C@H](C)c1ccccc1 [Example 287]
83.8 | 26 | – | – | O=C(NCc1ccccc1Cl)[C@H]1CCCN1CCc1ccccc1 [Example 271]
77.9 | 57 | – | – | COc1ccccc1CNC(=O)[C@H]1CCCN1Cc1cccc(Cl)c1 [Example 266]
90.2 | 18 | – | – | O=C(NC1C2CC3CC(C2)CC1C3)[C@H]1CNC[C@H](c2ccccc2)C1 (stereo partly drawn) [Example 346]
95.7 | 11.4 | – | – | C[C@@H](NC(=O)[C@H]1CCCN1Cc1ccccc1)c1ccc(Cl)cc1 [Example 296]
84.8 | 13 | – | – | O=C(N[C@@H]1CCCc2ccccc21)[C@H]1COCCN1CC1CCCC1 [Example 318]
100 | 5.6 | – | – | O=C(N[C@@H]1CCc2ccccc21)[C@H]1CCCN1Cc1ccccc1 [Example 283]
100 | 2.2 | – | – | CC(C)CN1CCOC[C@@H]1C(=O)NC1CCCCC1 [Example 332]
100 | 1 | – | – | O=C(NC1C2CC3CC(C2)CC1C3)[C@@H]1C[C@H](Oc2c(F)cc(F)cc2F)CN1 (stereo partly drawn) [Example 363]
100 | 8.52 | – | – | O=C(NC1Cc2ccccc2C1)[C@H]1CCCN1CC1CCCC1 [Example 294]
78.4 | 2.6 | – | – | O=C(NCc1ccc(F)cc1)[C@H]1COCCN1Cc1ccccc1 [Example 274]
100 | 7.82 | – | – | N#Cc1ccc(CN2CCC[C@@H]2C(=O)N[C@@H]2CCc3ccccc32)cc1 [Example 285]
100 | 1.5 | – | – | N#Cc1cccc(CN2CCOC[C@@H]2C(=O)NC2C3CC4CC(C3)CC2C4)c1 (stereo partly drawn) [Example 275]
100 | 2.1 | – | – | O=C(NC1C2CC3CC(C2)CC1C3)[C@@H]1C[C@H](Oc2cccc(C(F)(F)F)c2)CN1 (stereo partly drawn) [Example 357]

Second part, the compound before the results:

Compound | inhibition at 0.1 µM (0.1 μM compound) [%] | Ki [nM] | Ki (human 11b-hsd-1) [nM] | inhibition at 0.1 µM (compound at 0.1 μM) [%]
CN(C(=O)[C@H]1CSCN1Cc1ccc(Cl)cc1)C1CCCCC1 [Example 194] | 86.2 | 25 | – | –
CC(C)CN1CCOC[C@@H]1C(=O)NC1C2CC3CC(C2)CC1C3 (stereo partly drawn) [Example 64] | – | – | 1.3 | 100
O=C(NCC1(O)CCCCCC1)[C@H]1CCCN1CC1CCCC1 [Example 68] | – | – | 2 | 93.5
CCN1CCC[C@@H]1C(=O)NC12CC3CC(CC(C3)C1)C2 [Example 23] | – | – | 2.6 | 94
CC(C)CN1CCC[C@@H]1C(=O)NCc1cccc(F)c1 [Example 237] | 100 | 10.3 | – | –
O=C(NCc1ccc(Cl)cc1)[C@H]1CCCN1Cc1ccccc1 [Example 213] | 78 | 120 | – | –
O=C(NCc1ccccc1F)[C@H]1CCCN1CCC(F)(F)F [Example 229] | 73.7 | 48 | – | –
CC(C)CN1CCC[C@@H]1C(=O)NCc1c(F)cccc1F [Example 239] | 97.6 | 5.62 | – | –
O=C(NC1CCCCC1)[C@H]1CCCN1CCC(F)(F)F [Example 127] | – | – | – | 100
O=C(NC12CC3CC(CC(C3)C1)C2)[C@H]1CCCN1Cc1ccccn1 [Example 250] | 100 | 5.9 | – | –
CC(C)(O)CN1CCC[C@@H]1C(=O)NC1CCCCC1 [Example 87, 1-(2-Hydroxy-2-methyl-propyl)-pyrrolidine-2-carboxylic acid cyclohexylamide] | – | – | – | 54
CCN1C[C@H](O)C[C@@H]1C(=O)NC1C2CC3CC(C2)CC1C3 (stereo partly drawn) [Example 24] | – | – | 1.4 | 100
O=C(NC1C2CC3CC(C2)CC1C3)[C@H]1C[C@@H](O)CN1CC1CCCC1 (stereo partly drawn) [Example 28, (4R)-N-2-adamantyl-1-cyclopentylmethyl-4-hydroxy-D-prolinamide] | – | – | 1 | 100
CCN1CCCC[C@@H]1C(=O)NC12CC3CC(CC(C3)C1)C2 [Example 12] | – | – | 14 | 89
O=C(NC1C2CC3CC(C2)CC1C3)[C@H]1CCCN1CC1CCNCC1 (stereo partly drawn) [Example 144] | – | – | – | 87
CC(C)CN1CCC[C@@H]1C(=O)NC1CCC(F)(F)CC1 [Example 136] | – | – | – | 100
N#Cc1cccc(CN2CCC[C@@H]2C(=O)NC23CC4CC(CC(C4)C2)C3)c1 [Example 249] | 100 | 1 | – | –
CC(C)CN1CCOC[C@@H]1C(=O)N(C)Cc1ccc(F)cc1 [Example 37] | – | – | 39.3 | 100
O=C(NC1CCCCC1)[C@H]1C[C@@H](O)CN1Cc1ccc(F)cc1 [Example 31] | – | – | – | 53
CC(C)CN1CC[C@H](O)[C@H]1C(=O)NC12CC3CC(CC(C3)C1)C2 [Example 211] | 80.2 | 32 | – | –
O=C(NCc1ccc(Cl)cc1)[C@H]1CCCN1CC1CCCCC1 [Example 13] | – | – | 1 | 85
CC(C)CN1[C@H]2CC[C@H](C2)[C@H]1C(=O)NC12CC3CC(CC(C3)C1)C2 (relative stereo) [Example 209] | 100 | 1.9 | – | –
CC(C)CN1CCC[C@@H]1C(=O)NCc1cccc(Cl)c1 [Example 223] | 86.3 | 26 | – | –
CC(C)N1CCC(CN2CCOC[C@@H]2C(=O)NC2C3CC4CC(C3)CC2C4)CC1 (stereo partly drawn) [Example 73] | – | – | – | 83

Compound | inhibition at 0.1 µM (0.1 μM compound) [%] | Ki [nM] | Ki (human 11b-hsd-1) [nM] | inhibition at 0.1 µM (compound at 0.1 μM) [%]
CC(C)CN1CCOC[C@@H]1C(=O)NCc1cccc(F)c1 [Example 33] | – | – | – | 65
CN(C)CCN1CCC[C@@H]1C(=O)NC1C2CC3CC(C2)CC1C3 (stereo partly drawn) [Example 107] | – | – | 2 | 100
O=C(NCc1ccc(F)cc1F)[C@H]1CCCN1Cc1ccc(Cl)cc1 [Example 243] | 84.9 | 15 | – | –
O=C(NC12CC3CC(CC(C3)C1)C2)C1COCCN1CC1CCCC1 (stereo not drawn) [Example 183] | – | – | 2.1 | 100
CN1CCC(CN2C[C@H](O)C[C@@H]2C(=O)NC2C3CC4CC(C3)CC2C4)CC1 (stereo partly drawn) [Example 47, (4R)-N-2-adamantyl-4-hydroxy-1-[(1-methylpiperidin-4-yl)methyl]-D prolinamide] | – | – | – | 38
CCCN1CCC[C@@H]1C(=O)NC1(C)CCCCC1 [Example 104] | – | – | 6 | 100
CCCN1CCC[C@@H]1C(=O)NCc1ccc(OC)cc1 [Example 218] | 91.1 | 2500 | – | –
COC(C)(C)CN1CCC[C@@H]1C(=O)NC1CCCCC1 [Example 88, 1-(2-Methoxy-2-methyl-propyl)-pyrrolidine-2-carboxylic acid cyclohexylamide] | – | – | 7 | 94
O=C(NC1CCCCC1)[C@H]1CCCN1C1CCC1 [Example 103] | – | – | 14 | 83
Cc1cccc(CNC(=O)[C@H]2CCCN2CC(C)C)c1 [Example 258] | 90.1 | 24 | – | –
O=C(NCc1cccc(F)c1)[C@H]1CCCN1CC1CCCC1 [Example 240] | 76.3 | 44 | – | –
CCOc1ccccc1CNC(=O)[C@H]1CCCN1CC(C)C [Example 53] | – | – | 4.6 | 100
CC(C)CN1CCC[C@@H]1C(=O)NCc1ccc(Cl)cc1 [Example 221] | 95.7 | 5.9 | – | –
CCCN1CCOC[C@@H]1C(=O)NC1C2CC3CC(C2)CC1C3 (stereo partly drawn) [Example 65] | – | – | 2.6 | 100
O=C(NC12CC3CC(CC(C3)C1)C2)C1COCCN1CC1CCOCC1 (stereo not drawn) [Example 184] | – | – | 3.2 | 100
CN(C)CCN1C[C@H](O)C[C@@H]1C(=O)NC1C2CC3CC(C2)CC1C3 (stereo partly drawn) [Example 43] | – | – | – | 31.9
O=C(NC1C2CC3CC(C2)CC1C3)[C@H]1C[C@@H](O)CN1CC1CCOCC1 (stereo partly drawn) [Example 48] | – | – | – | 83
CN(C(=O)[C@H]1COCCN1CC1CCOCC1)C1CCCCC1 [Example 49] | – | – | – | 64
O=C(NC12CC3CC(CC(C3)C1)C2)[C@H]1CSCN1Cc1ccc(Cl)cc1 [Example 202] | 100 | 4.8 | – | –
CC(=O)N1CCC(CN2CCC[C@@H]2C(=O)NC2C3CC4CC(C3)CC2C4)CC1 (stereo partly drawn) [Example 139] | – | – | – | 100
CN(C(=O)[C@H]1COCCN1CC1CCCCC1)C1CCCCC1 [Example 11, (3R)-N-cyclohexyl-4-(cyclohexylmethyl)-N-methylmorpholine-3-carboxamide] | – | – | 38.3 | 80
COc1cccc(CNC(=O)[C@H]2CCCN2CC(C)C)c1 [Example 260] | 89.6 | 16 | – | –
O=C(NC1C2CC3CC(C2)CC1C3)[C@H]1COCCN1CCN1CCCC1 (stereo partly drawn) [Example 70] | – | – | – | 74
